This passage reports IC50 results from patent publication US20060106015A1, “Novel use of benzothiazole derivatives” (priority 2002, published 2006).

For orientation: IC50 means the concentration needed to halve the response being measured.

Molecules are shown by their SMILES.

This test concerns the target T1, recombinant human Itk kinase domain fused with GST (Homo sapiens, UniProt Q08881).
T1 construct: recombinant human Itk kinase domain fused with GST; GST (Glutathione S-Transferase); made in house; host or cells: High five insect cells
T1 sequence (Q08881 363-615 limits assumed): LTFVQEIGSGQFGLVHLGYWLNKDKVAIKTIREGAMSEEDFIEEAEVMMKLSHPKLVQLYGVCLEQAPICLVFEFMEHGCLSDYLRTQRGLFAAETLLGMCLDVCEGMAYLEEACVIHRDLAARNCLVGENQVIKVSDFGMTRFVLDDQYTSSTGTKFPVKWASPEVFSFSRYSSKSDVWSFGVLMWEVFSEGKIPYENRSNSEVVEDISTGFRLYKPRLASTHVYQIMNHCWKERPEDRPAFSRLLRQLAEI
The test can be described thus: Itk LANCE TRF Assay. It is filed as biochemical. The note with it: 50 μM ATP, 2 μM peptide substrate, 50 minutes RT; read-out: Inhibition of Kinase Itk (IC50 μM). On the procedure: The Itk kinase assay utilized recombinant human Itk kinase domain fused with GST (Glutathione S-Transferase). The protein was expressed in High five insect cells, purified in one step on an affinity chromatography glutathione column and stored in 50 mM Tris/HCl (pH 7.6), 150 mM NaCl, 5% (w/v) mannitol, 1 mM DTT, 30% glycerol at −70° C. The kinase substrate used in the assay was a biotinylated peptide derived from the Src-optimal substrate (Nair et al, J. Med. Chem., 38: 4276, 1995; biotin-AEEEIYGEFEAKKKK).
The assay additions were as follows: Test compounds (or controls; 1 μL in 100% DMSO) were added to black 96-well flat-bottomed plates (Greiner 655076) followed by 20 μL Itk in assay buffer and the reaction was started by adding 20 μL ATP and peptide substrate in assay buffer. The assay buffer constitution during phosphorylation was: 50 mM HEPES (pH 6.8), 10 mM MgCl2, 0.015% Brij 35, 1 mM DTT, 10% glycerol, 160 ng/well Itk, 2 μM peptide substrate and 50 μM ATP. The assay was stopped after 50 minutes (RT) by adding 150 μL ice-cold Stop solution (50 mM Tris/HCl, pH 7.5, 10 mM EDTA, 0.9% NaCl and 0.1% BSA) together with LANCE reagents (2 nM PT66-Eu^3+, Wallac AD0069 and 5 μg/ml Streptavidin-APC, Wallac AD0059. Both concentrations were final in stopped assay solution). The plates were measured on a Wallac 1420 Victor 2 instrument with TRF settings after 1 h incubation, and the ratio (665 signal/615 signal)*10000 was used to calculate the inhibition values. IC50 values were determined using XLfit.
`O=C(NCCCN1CCOCC1)c1ccc2nc(-c3ccc(Cl)cc3O)sc2c1` [Example 6, 2-(4-Chloro-2-hydroxyphenyl)-N-(3-morpholin-4-ylpropyl)-1,3-benzothiazole-6-carboxamide]: the IC50 was found to be 0.94 µM.
The figure for `Oc1ccc(Cl)cc1-c1nc2ccc(CN3CCCC3)cc2s1` [Example 34, 4-Chloro-2-[6-(pyrrolidin-1-ylmethyl)-1,3-benzothiazol-2-yl]phenol] is 1.47 µM; for `OCc1ccc2nc(-c3ccccc3O)sc2c1` [Example 44, 2-[6-(Hydroxymethyl)-1,3-benzothiazol-2-yl]phenol] it is 3.04 µM.
